Patent US20180246095A1, “COMPOSITIONS AND METHODS FOR DIAGNOSING AND TREATING LYME DISEASE” (priority 2015, published 2018)

Test system: B. burgdorferi B31
Assay: RNA-Seq gene expression profile of B. burgdorferi persisters that survived antibiotic treatment, compared with drug free control
Type: cell-based, Borrelia burgdorferi
Details: vs drug free control
Experimental: RNA Sequencing (RNA-Seq) was performed to determine the gene expression profile of B. burgdorferi persisters that survived antibiotic treatment using next generation sequencing to shed light on the mechanisms of B. burgdorferi persistence. B. burgdorferi B31 cultures were grown for 5 days to 1×10^7 spirochetes/ml in BSK-H medium followed by treatment with 50 μg/ml doxycycline or 50 μg/ml amoxicillin for 6 days. Triplicate biological samples were used for each group. The total RNA was extracted and ribosomal RNA was removed prior to preparation of cDNA libraries for Illumina sequencing. […] The RNA-Seq data was analyzed by BLAST analysis and mapped to KEGG pathways.

[1] = 50 μg/ml antibiotic for 6 days, more than two-fold change

Compound	genes down-regulated in treated group (50 μg/ml antibiotic for 6 days) [genes]	genes upregulated in treated group (50 μg/ml antibiotic for 6 days) [genes]	total genes differentially expressed between tolerant persisters and drug free group (50 μg/ml antibiotic for 6 days) [genes]	down-regulated genes identified by more than two-fold change [1] [genes]	up-regulated genes identified by more than two-fold change [1] [genes]	clpP (BB_0757) expression, upregulated fold change in persisters (B31 culture treated with 50 μg/ml antibiotic for 6 days) [fold]
CC1(C)S[C@@H]2[C@H](NC(=O)[C@H](N)c3ccc(O)cc3)C(=O)N2[C@H]1C(=O)O [amoxicillin, reference compound]	174	342	516			
C[C@H]1c2cccc(O)c2C(=O)C2=C(O)[C@]3(O)C(=O)C(C(N)=O)=C(O)[C@@H](N(C)C)[C@@H]3[C@@H](O)[C@@H]21 [doxycycline, reference compound]	340	335	675	33	35	30
